Results from patent US6358885B1, “Substituted phenylheterocyclic herbicides” (Mississippi State University, priority 1992, dated 2002).

How the values were obtained:
[1] = system: bedstraw; test: Test C preemergence/postemergence greenhouse plant response rating 0 to 100; format: in vivo, Galium aparine; details: POSTEMERGENCE; for Plant response rating, Bedstraw: 0 to 100 scale
Excerpt: (§1) The compounds evaluated in this test were formulated in a non-phytoxic solvent and applied to the soil surface before plant seedlings emerged (preemergence application), to water that covered the soil surface (flood application), and to plants that were in the one-to-four leaf stage (postemergence application). A sandy loam soil was used for the preemergence and postemergence tests, while a silt loam soil was used in the flood test. Water depth was approximately 2.5 cm for the flood test and was maintained at this level for the duration of the test. Plant species in the preemergence and postemergence tests consisted of barley (Hordeum vulgare), bedstraw (Galium aparine), blackgrass (Alopecurus myosuroides), chickweed (Stellaria media), corn (Zea mays), cotton (Gossypium hirsutum), crabgrass (Digitaria sanguinalis), downy brome (Bromus tectorum), giant foxtail (Setaria faberii), lambsquarters (Chenopodium album), morningglory (Ipomoea hederacea), pigweed ([…]), rape (Brassica napus), ryegrass (Lolium multiflorum), sorghum (Sorghum bicolor), soybean (Glycine max), speedwell (Veronica persica), sugar beet (Beta vulgaris), velvetleaf (Abutilon theophrasti), wheat (Triticum aestivum), wild buckwheat (Polygonum convolvulus), and wild oat (Avena fatua). All plant species were planted one day before application of the compound for the preemergence portion-of this test. Plantings of these species were adjusted to produce plants of appropriate size for the post-emergence portion of the test. […] All plant species were grown using normal greenhouse practices. Visual evaluations of injury expressed on treated plants, when compared to untreated controls, were recorded approximately fourteen to twenty one days after application of the test compound. […] A dash (-) response means no test result.

[2] = system: blackgrass; test: Test B preemergence/postemergence greenhouse plant response rating 0 to 10; format: in vivo, Alopecurus myosuroides; details: for Plant response rating, Blackgrass: 0 to 10 scale
Outline: (§2)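 Postemergence treatment of plants two to eighteen cm tall ran alongside preemergence treatment of planted seed, each using compound in a non-phytotoxic solvent.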

[3] = system: sugar beet; test: as above; format: in vivo, Beta vulgaris; details: 0 to 10 scale
Outline: as §2

[4] = system: rape; test: Test C preemergence/postemergence greenhouse plant response rating 0 to 100; format: in vivo, Brassica napus; details: POSTEMERGENCE; for Plant response rating, Rape: 0 to 100 scale
Excerpt: as §1

[5] = system: corn; test: as above; format: in vivo, Zea mays; details: POSTEMERGENCE; for Plant response rating, Corn: 0 to 100 scale
Excerpt: as §1

[6] = system: wild oat; test: as above; format: in vivo, Avena fatua; details: POSTEMERGENCE; for Plant response rating, Wild oat: 0 to 100 scale
Excerpt: as §1

[7] = system: barley; test: Test B preemergence/postemergence greenhouse plant response rating 0 to 10; format: in vivo, Hordeum vulgare; details: for Plant response rating, Barley: 0 to 10 scale
Outline: as §2

[8] = system: morningglory; test: Test C preemergence/postemergence greenhouse plant response rating 0 to 100; format: in vivo, Ipomoea hederacea; details: POSTEMERGENCE; for Plant response rating, Morningglory: 0 to 100 scale
Excerpt: as §1

[9] = system: crabgrass; test: as above; format: in vivo, Digitaria sanguinalis; details: POSTEMERGENCE; for Plant response rating, Crabgrass: 0 to 100 scale
Excerpt: as §1

[10] = system: chickweed; test: Test B preemergence/postemergence greenhouse plant response rating 0 to 10; format: in vivo, Stellaria media; details: 0 to 10 scale
Outline: as §2

[11] = system: rice; test: Test C flood test plant response rating 0 to 100; format: in vivo, Oryza sativa; details: for Plant response rating Rice Japonica: flood test species listed under POSTEMERGENCE, 0 to 100 scale
Excerpt: as §1

[12] = system: wheat; test: Test C preemergence/postemergence greenhouse plant response rating 0 to 100; format: in vivo, Triticum aestivum; details: POSTEMERGENCE; for Plant response rating, Wheat: 0 to 100 scale
Excerpt: as §1

[13] = system: sorghum; test: Test B preemergence/postemergence greenhouse plant response rating 0 to 10; format: in vivo, Sorghum bicolor; details: 0 to 10 scale
Outline: as §2

[14] = system: velvetleaf; test: as above; format: in vivo, Abutilon theophrasti; details: 0 to 10 scale
Outline: as §2

[15] = system: purple nutsedge; test: as above; format: in vivo, Cyperus rotundus; details: 0 to 10 scale
Outline: as §2

[16] = system: ryegrass; test: Test C preemergence/postemergence greenhouse plant response rating 0 to 100; format: in vivo, Lolium multiflorum; details: POSTEMERGENCE; for Plant response rating Ryegrass: 0 to 100 scale
Excerpt: as §1

[17] = system: barnyardgrass; test: Test B preemergence/postemergence greenhouse plant response rating 0 to 10; format: in vivo, Echinochloa crus-galli; details: for Plant response rating, Barnyardgrass: 0 to 10 scale
Outline: as §2

[18] = system: corn; test: as above; format: in vivo, Zea mays; details: for Plant response rating, Corn: 0 to 10 scale
Outline: as §2

SMILES: COC(=O)C(C)Oc1cc(-c2nn3c(c2Cl)CCCC3)c(F)cc1Cl (centres unmarked) [Compound 28]
- Plant response rating, Bedstraw ([1]; 62 g/ha): 100
- Plant response rating, Bedstraw ([1]; 250 g/ha): 100
- Plant response rating (0 to 100), Bedstraw ([1]; Rate 4 g/ha): 90
- Plant response rating (0 to 100), Bedstraw ([1]; Rate 16 g/ha): 100
- Plant response rating (0 to 10 scale), Blackgrass ([2]; POSTEMERGENCE, Rate 50 g/ha): 4
- Plant response rating, Blackgrass ([2]; POSTEMERGENCE, Rate 200 g/ha): 6
- Plant response rating, Blackgrass ([2]; PREEMERGENCE, Rate 50 g/ha): 2
- Plant response rating, Blackgrass ([2]; Rate 200 g/ha, PREEMERGENCE): 4
- Plant response rating, Sugar beet ([3]; POSTEMERGENCE, Rate 50 g/ha): 10
- Plant response rating, Sugar beet ([3]; POSTEMERGENCE, Rate 200 g/ha): 10
- Plant response rating, Sugar beet ([3]; PREEMERGENCE, Rate 50 g/ha): 10
- Plant response rating, Sugar beet ([3]; Rate 200 g/ha, PREEMERGENCE): 10
- Plant response rating, Rape ([4]; 62 g/ha): 100
- Plant response rating, Rape ([4]; 250 g/ha): 100
- Plant response rating (0 to 100), Rape ([4]; Rate 4 g/ha): 50
- Plant response rating (0 to 100), Rape ([4]; Rate 16 g/ha): 70
- Plant response rating, Corn ([5]; 62 g/ha): 80
- Plant response rating, Corn ([5]; 250 g/ha): 90
- Plant response rating (0 to 100), Corn ([5]; Rate 4 g/ha): 20
- Plant response rating (0 to 100), Corn ([5]; Rate 16 g/ha): 25
- Plant response rating, Wild oat ([6]; 62 g/ha): 50
- Plant response rating, Wild oat ([6]; 250 g/ha): 70
- Plant response rating (0 to 100), Wild oat ([6]; Rate 4 g/ha): 20
- Plant response rating (0 to 100), Wild oat ([6]; Rate 16 g/ha): 30
- Plant response rating (0 to 10 scale), Barley ([7]; POSTEMERGENCE, Rate 50 g/ha): 6
- Plant response rating, Barley ([7]; POSTEMERGENCE, Rate 200 g/ha): 6
- Plant response rating, Barley ([7]; PREEMERGENCE, Rate 50 g/ha): 0
- Plant response rating, Barley ([7]; Rate 200 g/ha, PREEMERGENCE): 0
- Plant response rating, Morningglory ([8]; 62 g/ha): 100
- Plant response rating, Morningglory ([8]; 250 g/ha): 100
- Plant response rating (0 to 100), Morningglory ([8]; Rate 4 g/ha): 50
- Plant response rating (0 to 100), Morningglory ([8]; Rate 16 g/ha): 80
- Plant response rating, Crabgrass ([9]; 62 g/ha): 20
- Plant response rating, Crabgrass ([9]; 250 g/ha): 50
- Plant response rating (0 to 100), Crabgrass ([9]; Rate 4 g/ha): 0
- Plant response rating (0 to 100), Crabgrass ([9]; Rate 16 g/ha): 0
- Plant response rating, Chickweed ([10]; POSTEMERGENCE, Rate 200 g/ha): 9
- Plant response rating, Chickweed ([10]; PREEMERGENCE, Rate 50 g/ha): 1
- Plant response rating, Chickweed ([10]; Rate 200 g/ha, PREEMERGENCE): 7
- Plant response rating (0 to 100), Rice Japonica ([11]; POSTEMERGENCE section, flood test, Rate 4 g/ha): 0
- Plant response rating (0 to 100), Rice Japonica ([11]; Rate 16 g/ha, under POSTEMERGENCE head (flood test species)): 45
- Plant response rating Rice Japonica ([11]; 62 g/ha): 65
- Plant response rating Rice Japonica ([11]; 250 g/ha): 85
- Plant response rating, Wheat ([12]; 62 g/ha): 70
- Plant response rating, Wheat ([12]; 250 g/ha): 100
- Plant response rating (0 to 100), Wheat ([12]; Rate 4 g/ha): 40
- Plant response rating (0 to 100), Wheat ([12]; Rate 16 g/ha): 60
- Plant response rating, Sorghum ([13]; POSTEMERGENCE, Rate 50 g/ha): 7
- Plant response rating, Sorghum ([13]; POSTEMERGENCE, Rate 200 g/ha): 9
- Plant response rating, Sorghum ([13]; PREEMERGENCE, Rate 50 g/ha): 0
- Plant response rating, Sorghum ([13]; Rate 200 g/ha, PREEMERGENCE): 0
- Plant response rating, Velvetleaf ([14]; POSTEMERGENCE, Rate 50 g/ha): 10
- Plant response rating, Velvetleaf ([14]; POSTEMERGENCE, Rate 200 g/ha): 10
- Plant response rating, Velvetleaf ([14]; PREEMERGENCE, Rate 50 g/ha): 5
- Plant response rating, Velvetleaf ([14]; Rate 200 g/ha, PREEMERGENCE): 10
- Plant response rating, Nutsedge ([15]; POSTEMERGENCE, Rate 50 g/ha): 2
- Plant response rating, Nutsedge ([15]; POSTEMERGENCE, Rate 200 g/ha): 5
- Plant response rating, Nutsedge ([15]; PREEMERGENCE, Rate 50 g/ha): 0
- Plant response rating, Nutsedge ([15]; Rate 200 g/ha, PREEMERGENCE): 0
- Plant response rating Ryegrass ([16]; 62 g/ha): 60
- Plant response rating Ryegrass ([16]; 250 g/ha): 70
- Plant response rating (0 to 100), Ryegrass ([16]; Rate 4 g/ha): 20
- Plant response rating (0 to 100), Ryegrass ([16]; Rate 16 g/ha): 40
- Plant response rating (0 to 10 scale), Barnyardgrass ([17]; POSTEMERGENCE, Rate 50 g/ha): 7
- Plant response rating, Barnyardgrass ([17]; POSTEMERGENCE, Rate 200 g/ha): 10
- Plant response rating, Barnyardgrass ([17]; PREEMERGENCE, Rate 50 g/ha): 0
- Plant response rating, Barnyardgrass ([17]; Rate 200 g/ha, PREEMERGENCE): 1
- Plant response rating (0 to 10 scale), Corn ([18]; POSTEMERGENCE, Rate 50 g/ha): 6
- Plant response rating, Corn ([18]; POSTEMERGENCE, Rate 200 g/ha): 9
- Plant response rating, Corn ([18]; PREEMERGENCE, Rate 50 g/ha): 0
- Plant response rating, Corn ([18]; Rate 200 g/ha, PREEMERGENCE): 2
